For 14 compounds, EC50 and Emax results are on record in patent US20240343740A1, “MACROCYCLIC GLUCAGON-LIKE PEPTIDE 1 RECEPTOR AGONISTS” (Eli Lilly and Company, priority 2021, published 2024).

Structures can show the parent of a compound that is named as a salt.

As usually defined, the EC50 is the concentration at which the effect is half-maximal. For orientation: Emax means the maximal effect, on the per cent scale that the assay sets.

Test [1] concerns the target T1, human GLP-1R (Homo sapiens, UniProt P43220). In words: Human GLP-1 Receptor HEK293 cell cAMP assay, 104 fmol/mg GLP-1R expression density. It counts as cell-based. Also on record: expressed in transfected cells; host or cells: HEK293 clonal cell line. Particulars: HEK293 cell line with 104 fmol/mg expression density of GLP-1R; for EC50: geometric mean, read-out: EC50 nM (SEM, n), intracellular cAMP response, relative EC50; for Emax: percent of maximal response to GLP-1(7-36)NH2, arithmetic mean, read-out: Emax % (SEM, n), intracellular cAMP response. The protocol: (§1) Human GLP-1 Receptor HEK293 Cell cAMP Assay
(§2) GLP-1 Receptor functional activity is determined using cAMP formation in an HEK293 clonal cell line expressing human GLP-1R (NCBI accession number NP_002053) at an expression density of 581±94 (n=6) and 104±12 (n=5) fmol/mg protein (determined using [^125I]GLP-1(7-36)NH2 homologous competition binding analysis). The hGLP-1R receptor expressing cells are treated with compound (20 point concentration-response curve in DMSO, 2.75-fold Labcyte Echo direct dilution, 384 well plate Corning Cat #3570) in DMEM (Gibco Cat #31053) supplemented with 1× GlutaMAX™ (Gibco Cat #35050), 0.1% bovine casein (Sigma C4765-10ML), 250 μM IBMX (3-Isobutyl-1-methylxanthine, Acros Cat #228420010) and 20 mM HEPES (Gibco Cat #15630) in a 20 μL assay volume (final DMSO concentration is 0.5%). After a 30 min incubation at 37° C., the resulting increase in intracellular cAMP is quantitatively determined using the CisBio cAMP Dynamic 2 HTRF Assay Kit (62AM4PEJ). Briefly, cAMP levels within the cell are detected by adding the cAMP-d2 conjugate in cell lysis buffer (10 μL) followed by the antibody anti-cAMP-Eu^3+-Cryptate, also in cell lysis buffer (10 μL). The resulting competitive assay is incubated for at least 60 min at RT, then detected using a PerkinElmer Envision® instrument with excitation at 320 nm and emission at 665 nm and 620 nm. Envision units (emission at 665 nm/620 nm*10,000) are inversely proportional to the amount of cAMP present and are converted to nM cAMP per well using a cAMP standard curve. The amount of cAMP generated (nM) in each well is converted to a percent of the maximal response observed with human GLP-1(7-36)NH2. A relative EC50 value and percent top (Emax) are derived by non-linear regression analysis using the percent maximal response vs. the concentration of compound added, fitted to a four-parameter logistic equation.
(In general: Cyclic AMP is a second messenger, typically raised through Gs and lowered through Gi signalling.)

For test [2], the target named is T1, human GLP-1R. In words: Human GLP-1 Receptor HEK293 cell cAMP assay, 581 fmol/mg GLP-1R expression density. It counts as cell-based. Also on record: expressed in transfected cells; host or cells: HEK293 clonal cell line. Particulars: HEK293 cell line with 581 fmol/mg expression density of GLP-1R; for EC50: geometric mean, read-out: EC50 nM (SEM, n), intracellular cAMP response, relative EC50; for Emax: percent of maximal response to GLP-1(7-36)NH2, arithmetic mean, read-out: Emax % (SEM, n), intracellular cAMP response. The protocol: as §1, §2

T1 sequence (P43220 24-463): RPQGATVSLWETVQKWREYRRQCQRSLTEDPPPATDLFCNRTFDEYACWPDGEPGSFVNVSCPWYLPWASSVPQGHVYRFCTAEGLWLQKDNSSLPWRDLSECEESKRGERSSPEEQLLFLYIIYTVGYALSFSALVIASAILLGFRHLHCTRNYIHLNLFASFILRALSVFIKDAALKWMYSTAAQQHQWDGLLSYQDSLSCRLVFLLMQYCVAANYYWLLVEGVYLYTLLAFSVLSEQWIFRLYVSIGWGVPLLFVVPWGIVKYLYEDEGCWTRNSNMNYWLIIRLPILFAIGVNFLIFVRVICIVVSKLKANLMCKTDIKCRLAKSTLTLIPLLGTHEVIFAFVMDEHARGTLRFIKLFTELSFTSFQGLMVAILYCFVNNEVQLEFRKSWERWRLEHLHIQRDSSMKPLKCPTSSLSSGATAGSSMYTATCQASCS

Regarding `CS(=O)(=O)c1ccc(-c2ccc3c(c2)CCCOc2cc(ccc2Cc2nc4ccc(C(=O)O)cc4n2C[C@@H]2CCO2)-c2cccc(n2)OC3)cc1` [Example 33, (S)-2-((5^4-(4-(Methylsulfonyl)phenyl)-3,9-dioxa-2(2,6)-pyridina-1(1,3),5(1,2)-dibenzenacyclononaphane-1^4-yl)methyl)-1-(oxetan-2-ylmethyl)-1H-benzo[d]imidazole-6-carboxylic acid], at human GLP-1R [1], the EC50 worked out at 111 nM and the maximum response (Emax) was determined as 85%. Further, on human GLP-1R [2], the EC50 was determined as 40.8 nM and the Emax was 112%.
The matching figures for `COc1cc(-c2ccc3c(c2)CCCOc2cc(ccc2Cc2nc4ccc(C(=O)O)cc4n2C[C@@H]2CCO2)-c2cccc(n2)OC3)ccn1` [Example 34, (S)-2-((5^4-(2-Methoxypyridin-4-yl)-3,9-dioxa-2(2,6)-pyridina-1(1,3),5(1,2)-dibenzenacyclononaphane-1^4-yl)methyl)-1-(oxetan-2-ylmethyl)-1H-benzo[d]imidazole-6-carboxylic acid]: 616 nM, 82.3%, 167 nM and 110%.
`O=C(O)c1ccc2nc(Cc3ccc4cc3OCCCc3cc(-c5cnn(C6CC6)c5)ccc3COc3cccc-4n3)n(C[C@@H]3CCO3)c2c1` [Example 35, (S)-2-((5^4-(1-Cyclopropyl-1H-pyrazol-4-yl)-3,9-dioxa-2(2,6)-pyridina-1(1,3),5(1,2)-dibenzenacyclononaphane-1^4-yl)methyl)-1-(oxetan-2-ylmethyl)-1H-benzo[d]imidazole-6-carboxylic acid]: on human GLP-1R [1], the half-maximal effective concentration (EC50) was 385 nM and the Emax turned out to be 88.1%. On human GLP-1R [2], the 50% effective concentration (EC50) amounted to 95.8 nM and the Emax came to 112%.
The matching figures for `Cn1cc(-c2ccc3c(c2)CCCOc2cc(ccc2Cc2nc4ccc(C(=O)O)cc4n2C[C@@H]2CCO2)-c2cccc(n2)OC3)ccc1=O` [Example 36, (S)-2-((5^4-(1-Methyl-6-oxo-1,6-dihydropyridin-3-yl)-3,9-dioxa-2(2,6)-pyridina-1(1,3),5(1,2)-dibenzenacyclononaphane-1^4-yl)methyl)-1-(oxetan-2-ylmethyl)-1H-benzo[d]imidazole-6-carboxylic acid]: 149 nM, 80%, 44 nM and 108%.
The matching figures for `O=C(O)c1ccc2nc(Cc3ccc4cc3OCCCc3cc(-c5cccnc5)ccc3COc3cccc-4n3)n(C[C@@H]3CCO3)c2c1` [Example 37, (S)-1-(Oxetan-2-ylmethyl)-2-((5^4-(pyridin-3-yl)-3,9-dioxa-2(2,6)-pyridina-1(1,3),5(1,2)-dibenzenacyclononaphane-1^4-yl)methyl)-1H-benzo[d]imidazole-6-carboxylic acid]: 506 nM, 79.7%, 179 nM and 103%.
The matching figures for `CNC(=O)c1ccc(-c2ccc3c(c2)CCCOc2cc(ccc2Cc2nc4ccc(C(=O)O)cc4n2C[C@@H]2CCO2)-c2cccc(n2)OC3)cc1` [Example 38, (S)-2-((5^4-(4-(Methylcarbamoyl)phenyl)-3,9-dioxa-2(2,6)-pyridina-1(1,3),5(1,2)-dibenzenacyclononaphane-1^4-yl)methyl)-1-(oxetan-2-ylmethyl)-1H-benzo[d]imidazole-6-carboxylic acid]: 613 nM, 56.9%, 300 nM and 90.1%.
Consider `O=C(O)c1ccc2nc(Cc3ccc4cc3OCCCc3cc(-c5ccc(CO)cc5)ccc3COc3cccc-4n3)n(C[C@@H]3CCO3)c2c1` [Example 39, (S)-2-((5^4-(4-(Hydroxymethyl)phenyl)-3,9-dioxa-2(2,6)-pyridina-1(1,3),5(1,2)-dibenzenacyclononaphane-1^4-yl)methyl)-1-(oxetan-2-ylmethyl)-1H-benzo[d]imidazole-6-carboxylic acid], for which, on human GLP-1R [1], the EC50 was determined as 762 nM and the Emax was determined as 76.6%. Moreover, at human GLP-1R [2], the 50% effective concentration (EC50) is 244 nM and the maximum response (Emax) is 99%.
The matching figures for `Cn1cc(-c2ccc3c(c2)CCCOc2cc(ccc2Cc2nc4ccc(C(=O)O)cc4n2C[C@@H]2CCO2)-c2cccc(n2)OC3)cn1` [Example 40, (S)-2-((5^4-(1-Methyl-1H-pyrazol-4-yl)-3,9-dioxa-2(2,6)-pyridina-1(1,3),5(1,2)-dibenzenacyclononaphane-1^4-yl)methyl)-1-(oxetan-2-ylmethyl)-1H-benzo[d]imidazole-6-carboxylic acid]: 154 nM, 85.9%, 42.4 nM and 110%.
The matching figures for `N#Cc1ccc2c(c1)CCCOc1cc(ccc1Cc1nc3ccc(-c4nnn[nH]4)cc3n1C[C@@H]1CCO1)-c1cccc(n1)OC2` [Example 41, (S)-1^4-((1-(Oxetan-2-ylmethyl)-6-(1H-tetrazol-5-yl)-1H-benzo[d]imidazol-2-yl)methyl)-3,9-dioxa-2(2,6)-pyridina-1(1,3),5(1,2)-dibenzenacyclononaphane-5^4-carbonitrile]: 713 nM, 60.3%, 184 nM and 89.1%.
Consider `N#Cc1ccc2c(c1)OCCc1cc(c(F)cc1Cc1nc3ccc(C(=O)O)cc3n1C[C@@H]1CCO1)-c1cccc(n1)OC2` [Example 42, (S)-2-((5^4-Cyano-1^6-fluoro-3,6-dioxa-2(2,6)-pyridina-1(1,3),5(1,2)-dibenzenacyclooctaphane-1^4-yl)methyl)-1-(oxetan-2-ylmethyl)-1H-benzo[d]imidazole-6-carboxylic acid], for which, at human GLP-1R [1], the concentration for a half-maximal effect (EC50) was 539 nM and the Emax was 66.4%. On human GLP-1R [2], the EC50 was determined as 187 nM and the Emax was 103%.
With `COc1cc(C(=O)O)cc2c1nc(Cc1cc(F)c3cc1OCCCc1cc(C#N)cnc1COc1cccc-3n1)n2C[C@@H]1CCO1` [Example 43, (S)-2-((5^5-Cyano-1^6-fluoro-3,9-dioxa-2(2,6),5(2,3)-dipyridina-1(1,3)-benzenacyclononaphane-1^4-yl)methyl)-4-methoxy-1-(oxetan-2-ylmethyl)-1H-benzo[d]imidazole-6-carboxylic acid diformate salt], at human GLP-1R [1], the concentration giving a half-maximal response (EC50) is 194 nM and the maximum response (Emax) came to 72%. On human GLP-1R [2], the EC50 stood at 48.6 nM and the Emax was 86.9%.
Consider `COc1cc(C(=O)O)cc2c1nc(Cc1cc(F)c3cc1CCOCc1cc(C#N)ccc1COc1cccc-3n1)n2C[C@@H]1CCO1` [Example 44, (S)-2-((5^4-Cyano-1^6-fluoro-3,7-dioxa-2(2,6)-pyridina-1(1,3),5(1,2)-dibenzenacyclononaphane-1^4-yl)methyl)-4-methoxy-1-(oxetan-2-ylmethyl)-1H-benzo[d]imidazole-6-carboxylic acid], for which, at human GLP-1R [1], the EC50 is 16.4 nM and the maximal effect (Emax) stood at 85.5%. Further, at human GLP-1R [2], the EC50 came to 4.14 nM and the Emax is 112%.
The matching figures for `COCCOc1cc(C(=O)O)cc2c1nc(Cc1cc(F)c3cc1COCCc1cc(Cl)cc(F)c1COc1cccc-3n1)n2C[C@@H]1CCO1` [Example 45, (S)-2-((5^4-Chloro-1^6,5^6-difluoro-3,8-dioxa-2(2,6)-pyridina-1(1,3),5(1,2)-dibenzenacyclononaphane-1^4-yl)methyl)-4-(2-methoxyethoxy)-1-(oxetan-2-ylmethyl)-1H-benzo[d]imidazole-6-carboxylic acid]: 7.57 nM, 87.9%, 2.4 nM and 122%.
The matching figures for `COCCOc1cc(C(=O)O)cc2c1nc(Cc1ccc3cc1COCCc1nc(ccc1C#N)COc1cccc-3n1)n2C[C@@H]1CCO1` [Example 46, (S)-2-((5^5-Cyano-3,8-dioxa-2,5(2,6)-dipyridina-1(1,3)-benzenacyclononaphane-1^4-yl)methyl)-4-(2-methoxyethoxy)-1-(oxetan-2-ylmethyl)-1H-benzo[d]imidazole-6-carboxylic acid]: 24.6 nM, 91.7%, 7.23 nM and 107%.
